Laboratory results published in paper PMC5843908, “Detection of PRMT1 inhibitors with stopped flow fluorescence” (Signal Transduction and Targeted Therapy, 2018).

Assays:
PRMT1 [1] = target: PRMT1 (Homo sapiens, UniProt Q99873); assay: Stopped flow fluorescence assay of PRMT1 inhibition ([PRMT1] 0.2 µM, [SAM] 3.5 µM, [H4FL] 0.4 µM); assay type: biochemical;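 also: Stopped-flow traces of fluorescent H4FL peptide quenched on binding PRMT1 and restored on release, recorded 900 s, averaged over repeated drives and fit to a double-exponential model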
Text: To obtain the IC50 of a specific inhibitor, the relative activities of the enzyme in presence of different concentrations of the inhibitor are required (equation 1).[37] […] By adding different concentrations of the inhibitor to the reaction mixture, the relative activity of the enzyme can be obtained by normalizing K to the reaction rate without the inhibitor, and then calculate the IC50 value using equation 1. In our stopped flow fluorescence assay, the reaction rate of Phase I and Phase II can be obtained by approximating and deriving the double-exponential equation (equation 2). In Phase I, during a very short period of time (where t is small), the curve is nearly linear, and the exponential equation can be approximately described as F1 = a · (−k1) · t. Therefore, the derivation of F1 equals –k1∙a, which is the slope of Phase I. Similarly, the curve of Phase II at early stage can be approximately described as F2 = b · (−k2) · t. This derivation of F2 equals –k2∙b, which is the slope of Phase II. The slopes at various inhibitor concentrations, normalized to the slope in the absence of inhibitor, can be used to obtain the corresponding relative enzyme activity from which the potency value (IC50) of the inhibitor can be calculated with equation 1.
In a stopped flow fluorescence assay, the binding of H4FL to PRMT1 (or the PRMT1—cofactor complex) quenches the peptide fluorescence, while release of the peptide restores the fluorescence. […] The widths of the entrance and exit slits of the monochromator were set to 0.5 mm. An equal volume of samples from two syringes was driven into the observation cell for mixing measurements. The H4FL concentration in all experiments was 0.4 μM. […] The fluorescent signal was recorded for 900 seconds, with 10,000 data points in total. Data from four to six drives were collected and averaged for each curve.
After averaging the shot data, the association time courses were fitted to a double-exponential function (equation 2) using GraphPad Prism (CA, USA). […] F is the fluorescence intensity at time t, k1, and k2 are the rate constants for Phase I and Phase II, a is the amplitude of the fluorescence change for k1, and b is the amplitude of the fluorescence change for k2. Simulation curves based on the values of a, b, k1, and k2 at fixed c = 1 were produced using Matlab. The IC50 value of inhibitors is determined by equation 1 using GraphPad Prism (CA, USA).

PRMT1 [2] = conditions: PRMT1 catalysis, cited from earlier work
PRMT1 [3] = test system: PRMT1; parameters: method as in earlier work; conditions: binary binding to PRMT1; ref 2 (supplement; Feng et al. 2011); cited from earlier work

Sequence of PRMT1 (Homo sapiens, UniProt Q99873) (Q99873 29-371): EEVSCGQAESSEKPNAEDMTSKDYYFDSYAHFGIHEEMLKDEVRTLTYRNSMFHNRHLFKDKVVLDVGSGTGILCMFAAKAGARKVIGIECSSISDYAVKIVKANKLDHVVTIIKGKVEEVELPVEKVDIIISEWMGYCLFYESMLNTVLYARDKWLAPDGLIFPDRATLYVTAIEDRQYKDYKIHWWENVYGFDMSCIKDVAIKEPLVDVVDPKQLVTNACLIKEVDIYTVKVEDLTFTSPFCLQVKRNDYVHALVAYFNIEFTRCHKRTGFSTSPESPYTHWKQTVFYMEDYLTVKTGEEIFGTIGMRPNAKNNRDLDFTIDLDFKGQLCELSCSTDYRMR

Q: With “acetyl-SGRme2aGKGGKGLGKGGAKRHRKVL [H4R3me2a]” as the substance, how does the “-b·k2 (slope of Phase II)” value (PRMT1 [1]; [H4R3Me2a] 0.025 µM) read?
A: The value was 0.000708 ± 1.5e-06 s⁻¹.

Q: And the “a (amplitude, Phase I)” value (PRMT1 [1]; [H4R3Me2a] 0.025 µM)?
A: Its value is 0.1544 ± 3.91E-04.

Q: And the “a·k1 (slope of Phase I)” value (PRMT1 [1]; [H4R3Me2a] 0.025 µM)?
A: Its value is 0.0108 ± 5.74e-05 s⁻¹.

Q: And the “b (amplitude, Phase II)” value (PRMT1 [1]; [H4R3Me2a] 0.025 µM)?
A: The value was -0.1795 ± 1.47E-04.

Q: And the “k1 (rate constant, Phase I)” value (PRMT1 [1]; [H4R3Me2a] 0.025 µM)?
A: The value was 0.06982 ± 3.27E-04 s^-1.

Q: And the “k2 (rate constant, Phase II)” value (PRMT1 [1]; [H4R3Me2a] 0.025 µM)?
A: The value was 0.003946 ± 7.72E-06 s^-1.

Q: What about the “-b·k2 (slope of Phase II)” value (PRMT1 [1]; [H4R3Me2a] 0.05 µM) of the same substance?
A: The value was 0.00064 ± 1.51e-06 s⁻¹.

Q: What about the “a (amplitude, Phase I)” value (PRMT1 [1]; [H4R3Me2a] 0.05 µM) of the same substance?
A: The value was 0.1589 ± 4.16E-04.

Q: What about the “a·k1 (slope of Phase I)” value (PRMT1 [1]; [H4R3Me2a] 0.05 µM) of the same substance?
A: Its value is 0.0106 ± 5.8e-05 s⁻¹.

Q: And the “b (amplitude, Phase II)” value (PRMT1 [1]; [H4R3Me2a] 0.05 µM)?
A: The value was -0.1863 ± 1.43E-04.

Q: And the “k1 (rate constant, Phase I)” value (PRMT1 [1]; [H4R3Me2a] 0.05 µM)?
A: The value was 0.06665 ± 3.21E-04 s^-1.

Q: What about the “k2 (rate constant, Phase II)” value (PRMT1 [1]; [H4R3Me2a] 0.05 µM) of the same substance?
A: Its value is 0.003437 ± 7.65E-06 s^-1.

Q: And the “-b·k2 (slope of Phase II)” value (PRMT1 [1]; [H4R3Me2a] 0.1 µM)?
A: Its value is 0.000608 ± 1.59e-06 s⁻¹.

Q: And the “a (amplitude, Phase I)” value (PRMT1 [1]; [H4R3Me2a] 0.1 µM)?
A: Its value is 0.1731 ± 3.91E-04.

Q: And the “a·k1 (slope of Phase I)” value (PRMT1 [1]; [H4R3Me2a] 0.1 µM)?
A: The value was 0.00927 ± 4.52e-05 s⁻¹.

Q: What about the “b (amplitude, Phase II)” value (PRMT1 [1]; [H4R3Me2a] 0.1 µM) of the same substance?
A: Its value is -0.1960 ± 1.50E-04.

Q: And the “k1 (rate constant, Phase I)” value (PRMT1 [1]; [H4R3Me2a] 0.1 µM)?
A: The value was 0.05356 ± 2.31E-04 s^-1.

Q: What about the “k2 (rate constant, Phase II)” value (PRMT1 [1]; [H4R3Me2a] 0.1 µM) of the same substance?
A: The value was 0.003104 ± 7.73E-06 s^-1.

Q: And the “-b·k2 (slope of Phase II)” value (PRMT1 [1]; [H4R3Me2a] 0.25 µM)?
A: Its value is 0.000613 ± 1.75e-06 s⁻¹.

Q: What about the “a (amplitude, Phase I)” value (PRMT1 [1]; [H4R3Me2a] 0.25 µM) of the same substance?
A: Its value is 0.1692 ± 4.25E-04.

Q: What about the “a·k1 (slope of Phase I)” value (PRMT1 [1]; [H4R3Me2a] 0.25 µM) of the same substance?
A: The value was 0.00914 ± 4.96e-05 s⁻¹.

Q: And the “b (amplitude, Phase II)” value (PRMT1 [1]; [H4R3Me2a] 0.25 µM)?
A: The value was -0.1883 ± 1.69E-04.

Q: What about the “k1 (rate constant, Phase I)” value (PRMT1 [1]; [H4R3Me2a] 0.25 µM) of the same substance?
A: The value was 0.054 ± 2.60E-04 s^-1.

Q: What about the “k2 (rate constant, Phase II)” value (PRMT1 [1]; [H4R3Me2a] 0.25 µM) of the same substance?
A: Its value is 0.003253 ± 8.83E-06 s^-1.

Q: What about the “-b·k2 (slope of Phase II)” value (PRMT1 [1]; [H4R3Me2a] 0.5 µM) of the same substance?
A: Its value is 0.000482 ± 2.06e-06 s⁻¹.

Q: And the “a (amplitude, Phase I)” value (PRMT1 [1]; [H4R3Me2a] 0.5 µM)?
A: Its value is 0.1282 ± 4.32E-04.

Q: And the “a·k1 (slope of Phase I)” value (PRMT1 [1]; [H4R3Me2a] 0.5 µM)?
A: Its value is 0.00584 ± 4.38e-05 s⁻¹.

Q: What about the “b (amplitude, Phase II)” value (PRMT1 [1]; [H4R3Me2a] 0.5 µM) of the same substance?
A: Its value is -0.1431 ± 2.10E-04.

Q: And the “k1 (rate constant, Phase I)” value (PRMT1 [1]; [H4R3Me2a] 0.5 µM)?
A: The value was 0.04557 ± 3.06E-04 s^-1.

Q: And the “k2 (rate constant, Phase II)” value (PRMT1 [1]; [H4R3Me2a] 0.5 µM)?
A: The value was 0.00337 ± 1.35E-05 s^-1.

Q: And the “-b·k2 (slope of Phase II)” value (PRMT1 [1]; [H4R3Me2a] 1 µM)?
A: The value was 0.000195 ± 1.96e-06 s⁻¹.

Q: And the “a (amplitude, Phase I)” value (PRMT1 [1]; [H4R3Me2a] 1 µM)?
A: The value was 0.1156 ± 3.30E-04.

Q: And the “a·k1 (slope of Phase I)” value (PRMT1 [1]; [H4R3Me2a] 1 µM)?
A: Its value is 0.0041 ± 2.6e-05 s⁻¹.

Q: And the “b (amplitude, Phase II)” value (PRMT1 [1]; [H4R3Me2a] 1 µM)?
A: Its value is -0.1396 ± 5.20E-04.

Q: And the “k1 (rate constant, Phase I)” value (PRMT1 [1]; [H4R3Me2a] 1 µM)?
A: The value was 0.0355 ± 2.01E-04 s^-1.

Q: And the “k2 (rate constant, Phase II)” value (PRMT1 [1]; [H4R3Me2a] 1 µM)?
A: The value was 0.001394 ± 1.31E-05 s^-1.

Q: What about the “-b·k2 (slope of Phase II)” value (PRMT1 [1]; [H4R3Me2a] 2 µM) of the same substance?
A: Its value is 0.000103 ± 2.25e-06 s⁻¹.

Q: What about the “a (amplitude, Phase I)” value (PRMT1 [1]; [H4R3Me2a] 2 µM) of the same substance?
A: The value was 0.0723 ± 3.03E-04.

Q: What about the “a·k1 (slope of Phase I)” value (PRMT1 [1]; [H4R3Me2a] 2 µM) of the same substance?
A: The value was 0.00179 ± 1.72e-05 s⁻¹.

Q: What about the “b (amplitude, Phase II)” value (PRMT1 [1]; [H4R3Me2a] 2 µM) of the same substance?
A: Its value is -0.07524 ± 5.65E-04.

Q: And the “k1 (rate constant, Phase I)” value (PRMT1 [1]; [H4R3Me2a] 2 µM)?
A: Its value is 0.02475 ± 2.15E-04 s^-1.

Q: And the “k2 (rate constant, Phase II)” value (PRMT1 [1]; [H4R3Me2a] 2 µM)?
A: The value was 0.001365 ± 2.82E-05 s^-1.

Q: With acetyl-SGRGKGGKGK(FL)GKGGAKRHRK [H4FL] as the substance, how does the kcat (PRMT1 [2]) read?
A: The kcat was 0.00717 ± 0.00017 s⁻¹.

Q: What about the Km (PRMT1 [2]; read-out: Km of peptide substrate) of the same substance?
A: Its Km is 0.5 ± 0.05 µM.

Q: What about the koff (PRMT1 [3]) of the same substance?
A: The koff was 333 s⁻¹.

Q: What about the kon (PRMT1 [3]) of the same substance?
A: The kon was 4e+07 M⁻¹ s⁻¹.

Q: Which koff (PRMT1 [3]) does the source give for “acetyl-SGRmeGKGGKGK(FL)GKGGAKRHRK [H4FLme1]” here?
A: The koff was 292 s⁻¹.

Q: What about the kon (PRMT1 [3]) of the same substance?
A: Its kon is 2.3e+07 M⁻¹ s⁻¹.
